Read-outs that look alike come from different tables or passages of the source.
System: panel of 55 breast cancer cell lines
Assay: Cell growth inhibition assay (Cell Titer Glo, 72 h, 9 doses; GI50, TGI, LC50)
Assay type: cell-based, human
Details: Homo sapiens, read-out: GI50 (converted)
[1] = AU565, AU565 cell line, censored GI50 values
[2] = BT-474, BT474 cell line, censored GI50 values
[3] = BT-483, BT483 cell line, censored GI50 values
[4] = CAMA-1, CAMA1 cell line, censored GI50 values
[5] = HCC38, HCC38 cell line, censored GI50 values
[6] = HCC70, HCC70 cell line, censored GI50 values
[7] = HCC202, HCC202 cell line, censored GI50 values
[8] = HCC1187, HCC1187 cell line, censored GI50 values
[9] = HCC1419, HCC1419 cell line, censored GI50 values
[10] = HCC1428, HCC1428 cell line, censored GI50 values
[11] = HCC1500, HCC1500 cell line, censored GI50 values
[12] = HCC1806, HCC1806 cell line, censored GI50 values
[13] = HCC1954, HCC1954 cell line, censored GI50 values
[14] = HCC2185 cell line, censored GI50 values
[15] = HCC3153 cell line, censored GI50 values
[16] = MCF7, MCF7 cell line, censored GI50 values
[17] = MDA-MB-134-VI, MDAMB134VI cell line, censored GI50 values
[18] = MDA-MB-175-VII, MDAMB175VII cell line, censored GI50 values
[19] = MDA-MB-231, MDAMB231 cell line, censored GI50 values
[20] = MDA-MB-361, MDAMB361 cell line, censored GI50 values
[21] = MDA-MB-415, MDAMB415 cell line, censored GI50 values
[22] = MDA-MB-468, MDAMB468 cell line, censored GI50 values
[23] = SK-BR-3, SKBR3 cell line, censored GI50 values
[24] = SUM52PE, SUM52PE cell line, censored GI50 values
[25] = SUM1315MO2, SUM1315MO2 cell line, censored GI50 values
[26] = SUM-159-PT, SUM159PT cell line, censored GI50 values
[27] = UACC-812, UACC812 cell line, censored GI50 values

CO[C@H]1C[C@@H]2CC[C@@H](C)[C@@](O)(O2)C(=O)C(=O)N2CCCC[C@H]2C(=O)O[C@H]([C@H](C)C[C@@H]2CC[C@@H](O)[C@H](OC)C2)CC(=O)[C@H](C)/C=C(\C)[C@@H](O)[C@@H](OC)C(=O)[C@H](C)C[C@H](C)/C=C/C=C/C=C/1C [Rapamycin]
GI50 [1]: 31.6 nM
GI50 (AU565, cell line AU565): 31.6 nM
GI50 (BT-20, BT20 cell line, censored GI50 values): 13.5 nM
GI50 (BT-20, cell line BT20): 13.5 nM
GI50 [2]: 15.1 nM
GI50 (BT-474, cell line BT474): 15.1 nM
GI50 [3]: 1.66 nM
GI50 (BT-483, cell line BT483): 1.66 nM
GI50 (BT-549, BT549 cell line, censored GI50 values): 33100 nM
GI50 (BT-549, cell line BT549): 33100 nM
GI50 [4]: 15.1 nM
GI50 (CAMA-1, cell line CAMA1): 15.1 nM
GI50 [5]: 33.9 nM
GI50 (HCC38, cell line HCC38): 33.9 nM
GI50 [6]: 120 nM
GI50 (HCC70, cell line HCC70): 120 nM
GI50 [7]: 5.01 nM
GI50 (HCC202, cell line HCC202): 5.01 nM
GI50 [8]: 32.4 nM
GI50 (HCC1187, cell line HCC1187): 32.4 nM
GI50 [9]: 4.37 nM
GI50 (HCC1419, cell line HCC1419): 4.37 nM
GI50 [10]: 51.3 nM
GI50 (HCC1428, cell line HCC1428): 51.3 nM
GI50 [11]: 93300 nM
GI50 (HCC1500, cell line HCC1500): 93300 nM
GI50 [12]: 66100 nM
GI50 (HCC1806, cell line HCC1806): 66100 nM
GI50 (HCC1937, HCC1937 cell line, censored GI50 values): 1230 nM
GI50 (HCC1937, cell line HCC1937): 1230 nM
GI50 [13]: 3.55 nM
GI50 (HCC1954, cell line HCC1954): 3.55 nM
GI50 [14]: 1.62 nM
GI50 [15]: 5620 nM
GI50 [16]: 145 nM
GI50 (MCF7, cell line MCF7): 145 nM
GI50 [17]: 6.76 nM
GI50 (MDA-MB-157, cell line MDAMB157): 166000 nM
GI50 [18]: 3.72 nM
GI50 [19]: 3550 nM
GI50 (MDA-MB-231, cell line MDAMB231): 3550 nM
GI50 [20]: 741 nM
GI50 (MDA-MB-361, cell line MDAMB361): 741 nM
GI50 [21]: 2.09 nM
GI50 (MDA-MB-415, cell line MDAMB415): 2.09 nM
GI50 (MDA-MB-436, cell line MDAMB436): 166000 nM
GI50 [22]: 2820 nM
GI50 (MDA-MB-468, cell line MDAMB468): 2820 nM
GI50 [23]: 60.3 nM
GI50 (SK-BR-3, cell line SKBR3): 60.3 nM
GI50 (SUM44PE cell line, censored GI50 values): 0.55 nM
GI50 [24]: 3.02 nM
GI50 (SUM52PE, cell line SUM52PE): 3.02 nM
GI50 (SUM149PT, SUM149PT cell line, censored GI50 values): 9330 nM
GI50 (SUM149PT, cell line SUM149PT): 9330 nM
GI50 (SUM225CWN, SUM225CWN cell line, censored GI50 values): 16.6 nM
GI50 (SUM225CWN, cell line SUM225CWN): 16.6 nM
GI50 [25]: 3310 nM
GI50 [26]: 724 nM
GI50 (SUM-159-PT, cell line SUM159PT): 724 nM
GI50 (T47D, T47D cell line, censored GI50 values): 490 nM
GI50 (T47D, cell line T47D): 490 nM
GI50 [27]: 46.8 nM
GI50 (UACC-812, cell line UACC812): 46.8 nM
GI50 (UACC-893, cell line UACC893): 166000 nM
GI50 (cell line HCC2185): 1.62 nM
GI50 (cell line HCC3153): 5620 nM
GI50 (cell line MDAMB134V): 6.76 nM
GI50 (cell line MDAMB175V): 3.72 nM
GI50 (cell line SUM44PE): 0.55 nM
GI50 (cell line SUM1315MO): 3310 nM

COc1cccc2c1C(=O)c1c(O)c3c(c(O)c1C2=O)C[C@@](O)(C(=O)CO)C[C@@H]3O[C@H]1C[C@H](N)[C@H](O)[C@H](C)O1 [Doxorubicin]
GI50 (600MPE cell line, censored GI50 values): 269 nM
GI50 [1]: 93.3 nM
GI50 (AU565, cell line AU565): 93.3 nM
GI50 [2]: 309 nM
GI50 (BT-474, cell line BT474): 309 nM
GI50 [3]: 151 nM
GI50 (BT-483, cell line BT483): 151 nM
GI50 [4]: 263 nM
GI50 (CAMA-1, cell line CAMA1): 263 nM
GI50 [5]: 72.4 nM
GI50 (HCC38, cell line HCC38): 72.4 nM
GI50 [6]: 2290 nM
GI50 (HCC70, cell line HCC70): 2290 nM
GI50 [7]: 525 nM
GI50 (HCC202, cell line HCC202): 525 nM
GI50 (HCC1143, HCC1143 cell line, censored GI50 values): 525 nM
GI50 (HCC1143, cell line HCC1143): 525 nM
GI50 [8]: 132 nM
GI50 (HCC1187, cell line HCC1187): 132 nM
GI50 (HCC1395, HCC1395 cell line, censored GI50 values): 251 nM
GI50 (HCC1395, cell line HCC1395): 251 nM
GI50 [9]: 513 nM
GI50 (HCC1419, cell line HCC1419): 513 nM
GI50 [10]: 1200 nM
GI50 (HCC1428, cell line HCC1428): 1200 nM
GI50 [11]: 200 nM
GI50 (HCC1500, cell line HCC1500): 200 nM
GI50 [12]: 162 nM
GI50 (HCC1806, cell line HCC1806): 162 nM
GI50 [13]: 186 nM
GI50 (HCC1954, cell line HCC1954): 186 nM
GI50 [14]: 69.2 nM
GI50 [15]: 355 nM
GI50 (LY2 cell line, censored GI50 values): 195 nM
GI50 [16]: 501 nM
GI50 (MCF7, cell line MCF7): 501 nM
GI50 [17]: 1200 nM
GI50 (MDA-MB-157, MDAMB157 cell line, censored GI50 values): 398 nM
GI50 (MDA-MB-157, cell line MDAMB157): 398 nM
GI50 [18]: 708 nM
GI50 [19]: 214 nM
GI50 (MDA-MB-231, cell line MDAMB231): 214 nM
GI50 [20]: 234 nM
GI50 (MDA-MB-361, cell line MDAMB361): 234 nM
GI50 [21]: 372 nM
GI50 (MDA-MB-415, cell line MDAMB415): 372 nM
GI50 (MDA-MB-436, MDAMB436 cell line, censored GI50 values): 589 nM
GI50 (MDA-MB-436, cell line MDAMB436): 589 nM
GI50 (MDA-MB-453, MDAMB453 cell line, censored GI50 values): 214 nM
GI50 (MDA-MB-453, cell line MDAMB453): 214 nM
GI50 [22]: 741 nM
GI50 (MDA-MB-468, cell line MDAMB468): 741 nM
GI50 [23]: 126 nM
GI50 (SK-BR-3, cell line SKBR3): 126 nM
GI50 [24]: 97.7 nM
GI50 (SUM52PE, cell line SUM52PE): 97.7 nM
GI50 (SUM185PE, SUM185PE cell line, censored GI50 values): 309 nM
GI50 (SUM185PE, cell line SUM185PE): 309 nM
GI50 [25]: 214 nM
GI50 [26]: 347 nM
GI50 (SUM-159-PT, cell line SUM159PT): 347 nM
GI50 [27]: 74.1 nM
GI50 (UACC-812, cell line UACC812): 74.1 nM
GI50 (UACC-893, UACC893 cell line, censored GI50 values): 832 nM
GI50 (UACC-893, cell line UACC893): 832 nM
GI50 (ZR-75-1, ZR751 cell line, censored GI50 values): 138 nM
GI50 (ZR-75-1, cell line ZR751): 138 nM
GI50 (ZR-75-30, ZR7530 cell line, censored GI50 values): 110 nM
GI50 (ZR-75-30, cell line ZR7530): 110 nM
GI50 (ZR-75B, ZR75B cell line, censored GI50 values): 251 nM
GI50 (ZR-75B, cell line ZR75B): 251 nM
GI50 (cell line 600MPE): 269 nM
GI50 (cell line HCC2185): 69.2 nM
GI50 (cell line HCC3153): 355 nM
GI50 (cell line LY2): 195 nM
GI50 (cell line MDAMB134V): 1200 nM
GI50 (cell line MDAMB175V): 708 nM
GI50 (cell line SUM1315MO): 214 nM

Source: patent US10770169B2, “Method of providing a treatment to a subject based on a dynamic pathway map” (THE REGENTS OF THE UNIVERSITY OF CALIFORNIA, priority 2010, dated 2020)
